Experimental findings from ChEMBL document CHEMBL1201862, “PubChem BioAssay data set” (2004) are described below.

Assay [1] is described as follows: NIH-3T3 fibroblast cytotoxicity, dose response, cytotoxicity control, cell-based, fluorescence, Alamar Blue, secondary assay (AID 2327).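 Also: NIH-3T3 mouse fibroblasts cultured with fluconazole at 8 µg/mL.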 The class given is functional. On the technique in general: Alamar Blue is a resazurin reagent that responds to reducing activity.
Assay [2] is described as follows: fluconazole-exposed Candida albicans growth modulators – fluorescence, retest, confirmation (AID 2467). The format is functional, cell-based.
Assay [3] has as its target ATP-dependent molecular chaperone HSP82 (Candida albicans (strain WO-1) (Yeast), UniProt C4YTQ8). In words: steroid-induced GRE reporter decrease in yeast – S. cerevisiae, luminescence, Hsp90 inhibitor project, dose response (AID 2400).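 Also: beta-galactosidase luminescence from glucocorticoid response element reporter as proxy for Hsp90 function; inhibitor potency where signal loss means Hsp90 inhibition.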 The class given is functional, cell-based.
The target in assay [4] is Serine/threonine-protein phosphatase (Candida dubliniensis (strain CD36 / CBS 7987 / NCPF 3949 / NRRLY-17841) (Yeast), UniProt B9W6M3). The assay can be described thus: blockers of CaCl2-induced CDRE-lacZ signaling – S. cerevisiae, luminescence, secondary, dose response (AID 2388).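 Also: yeast reporter cells carrying a calcineurin-responsive lacZ construct stimulated with calcium chloride; luminescent beta-galactosidase reporter signal in whole cells rather than isolated phosphatase activity; potency for inhibition where a drop in reporter signal means calcineurin blockade.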 The class given is functional, cell-based.
Chain of Serine/threonine-protein phosphatase (B9W6M3 whole entry): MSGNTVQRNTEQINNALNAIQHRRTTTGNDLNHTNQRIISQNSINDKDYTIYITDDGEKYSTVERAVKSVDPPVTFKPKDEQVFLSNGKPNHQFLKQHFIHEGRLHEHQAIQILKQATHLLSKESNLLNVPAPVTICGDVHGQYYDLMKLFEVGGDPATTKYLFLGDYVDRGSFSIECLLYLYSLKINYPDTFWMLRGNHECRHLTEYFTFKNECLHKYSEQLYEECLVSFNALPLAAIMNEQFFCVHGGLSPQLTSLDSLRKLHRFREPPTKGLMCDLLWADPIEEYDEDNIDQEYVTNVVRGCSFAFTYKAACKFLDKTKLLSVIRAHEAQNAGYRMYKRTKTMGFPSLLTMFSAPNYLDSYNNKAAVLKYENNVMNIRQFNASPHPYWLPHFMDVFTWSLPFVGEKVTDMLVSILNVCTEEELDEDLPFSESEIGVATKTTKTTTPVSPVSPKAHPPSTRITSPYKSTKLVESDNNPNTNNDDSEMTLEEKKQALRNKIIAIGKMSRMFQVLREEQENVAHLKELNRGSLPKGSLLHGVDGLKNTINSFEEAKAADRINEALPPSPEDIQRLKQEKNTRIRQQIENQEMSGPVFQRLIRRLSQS
In a further assay the target is Beta Lactamase (Pseudomonas aeruginosa, UniProt Q932Y6). In words: BLA reporter interference, concentration series – BLA reporter cells, FRET fluorescence, artefact control for TLR9-MyD88 binding inhibitor project, dose response (AID 588341).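 Also: cell based assay in CHO-K1 cells stably expressing beta-lactamase.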 The class given is cell-based.
Chain of Beta Lactamase (Q932Y6 whole entry, the tested form may be a part): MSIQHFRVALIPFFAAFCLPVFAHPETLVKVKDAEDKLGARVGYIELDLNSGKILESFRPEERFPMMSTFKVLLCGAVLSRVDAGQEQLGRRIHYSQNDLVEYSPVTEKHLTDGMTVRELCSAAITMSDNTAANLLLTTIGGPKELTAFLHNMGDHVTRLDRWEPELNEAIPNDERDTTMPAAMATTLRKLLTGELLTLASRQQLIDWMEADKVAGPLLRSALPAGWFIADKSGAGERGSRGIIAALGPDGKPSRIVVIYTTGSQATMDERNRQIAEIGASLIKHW
A further assay has as its system CHO. In words: CHO cell viability loss, potency – luminescence, cytotoxicity control for TLR9-MyD88 binding inhibitor project, dose response (AID 588339).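 Also: CHO cells stably coexpressing TLR9 and MyD88 fusions from primary screen; compound exposure lasted 48 hours before viability readout.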 The format is functional, cell-based, hamster. The settings on record: Cricetulus griseus.
Assay [5] concerns Vero. In words: cells. The settings on record: Chlorocebus sabaeus. The format is functional, cell-based.
Another assay deals with CAAX prenyl protease 2 (Homo sapiens, UniProt Q9Y256). In words: inhibition of Ras-converting CAAX protease Rce1 – biochemical, yeast membranes, quenched-peptide fluorescence, cherry-pick, dose response (AID 588849).
Chain of CAAX prenyl protease 2 (Q9Y256 whole entry): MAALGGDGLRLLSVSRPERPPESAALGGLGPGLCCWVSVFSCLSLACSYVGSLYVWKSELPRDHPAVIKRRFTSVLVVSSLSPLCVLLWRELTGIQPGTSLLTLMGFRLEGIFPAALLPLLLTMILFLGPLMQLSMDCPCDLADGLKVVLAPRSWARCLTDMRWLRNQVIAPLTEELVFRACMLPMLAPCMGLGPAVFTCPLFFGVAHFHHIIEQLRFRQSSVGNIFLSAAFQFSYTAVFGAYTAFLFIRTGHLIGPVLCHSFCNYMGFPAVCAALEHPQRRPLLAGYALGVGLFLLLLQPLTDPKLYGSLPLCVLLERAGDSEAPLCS
The target of assay [6] is Eukaryotic translation initiation factor 4E (Mus musculus, UniProt P63073). The assay can be described thus: blockers of eIF4G binding by eIF4E – biochemical, TR-FRET, dose response (AID 855).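 Also: potency for disrupting eIF4E binding to eIF4GI seen as loss of FRET.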 The format is functional.
Chain of Eukaryotic translation initiation factor 4E (P63073 whole entry): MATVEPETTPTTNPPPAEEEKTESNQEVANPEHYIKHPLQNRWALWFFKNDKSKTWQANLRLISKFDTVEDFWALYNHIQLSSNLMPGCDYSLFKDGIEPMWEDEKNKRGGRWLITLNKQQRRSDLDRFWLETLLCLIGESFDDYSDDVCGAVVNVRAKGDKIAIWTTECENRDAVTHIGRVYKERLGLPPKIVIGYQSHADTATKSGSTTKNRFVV
Assay [7] addresses T1, Microphthalmia-associated transcription factor (Homo sapiens, UniProt O75030).
T1 sequence (O75030 whole entry): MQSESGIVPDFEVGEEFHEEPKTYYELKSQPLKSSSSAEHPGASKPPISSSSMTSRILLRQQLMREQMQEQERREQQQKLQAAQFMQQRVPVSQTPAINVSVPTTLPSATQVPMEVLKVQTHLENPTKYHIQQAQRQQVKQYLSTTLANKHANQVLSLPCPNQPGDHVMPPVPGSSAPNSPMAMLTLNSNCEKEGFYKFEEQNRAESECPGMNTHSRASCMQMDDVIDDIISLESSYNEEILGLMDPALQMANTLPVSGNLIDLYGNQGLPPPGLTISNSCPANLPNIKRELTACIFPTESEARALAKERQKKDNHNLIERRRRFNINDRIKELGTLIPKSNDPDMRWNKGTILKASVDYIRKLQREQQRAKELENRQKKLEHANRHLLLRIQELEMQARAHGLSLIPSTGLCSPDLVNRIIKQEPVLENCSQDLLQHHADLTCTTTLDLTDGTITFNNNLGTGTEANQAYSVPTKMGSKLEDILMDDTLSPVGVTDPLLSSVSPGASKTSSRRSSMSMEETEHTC
The assay can be described thus: reducers of TRPM1 reporter luminescence, concentration series – cell-based, SK-MEL-5, cherry-picked, set 3, MITF inhibitor project, dose response (AID 493073).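 Also: SK-MEL-5 melanoma cells with luciferase driven by the MITF target TRPM1 promoter.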 The class given is functional.

Assay [8] has as its target T2, Endoribonuclease toxin MazF (Escherichia coli K-12, UniProt P0AE70).
T2 sequence (P0AE70 whole entry): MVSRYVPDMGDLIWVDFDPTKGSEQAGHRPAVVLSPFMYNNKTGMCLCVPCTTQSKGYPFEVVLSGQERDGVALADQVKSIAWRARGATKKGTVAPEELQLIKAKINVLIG
The assay can be described thus: substrate-only fluorescence increase artefacts – biochemical, single-stranded RNase substrate, counter-screen for MazEF activator project, dose response (AID 588502). The format is functional. In general terms: A counterscreen serves to expose hits that act by an unwanted route or on another target.

In assay [9] the test system is A-375. In words: proliferation inhibition in MITF-low A375 cells – cell-based, cherry-pick samples, set 2, counter-screen for MITF modulator project, dose response (AID 540335). The class given is functional. The settings on record: Homo sapiens.
Assay [10] has as its system A-375. In words: MITF: Counter assay: A375 proliferation Measured in Cell-Based System Using Plate Reader - 2084-03_Inhibitor_Dose_DryPowder_Activity. [Related pubchem assays (depositor defined):AID488944]. The class given is functional. The settings on record: Homo sapiens.
Assay [11] deals with T2, Endoribonuclease toxin MazF. In words: activation of MazEF endoribonuclease cleavage – biochemical, fluorescence, single-stranded RNA substrate, uHTS hits, dose response (AID 588481). The class given is functional.
The nature of assay [12]: viability loss in CEM21 cells – cell-based, CellTiter-Glo luminescence, cherry-picked, cytotoxicity control for viral fusion inhibitor project, dose response (AID 652042).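 Also: potency for signal decrease meaning cytotoxicity.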 The format is functional. On the technique in general: In ATP-based viability assays light output follows the ATP content of the culture.
Assay [13] in a line: HIV-1 AD8 envelope cell-cell fusion blockers – cherry-pick, dose response (AID 652062).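 Also: luciferase signal from cell-cell fusion driven by HIV-1 clade B AD8 Env; potency is for inhibitors of fusion seen as a drop in luminescence.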 The format is functional, cell-based.
For another assay, the system named is INS1. In words: INS-1E survival protection against cytokine death – cell-based, luminescence, retest, dose response (AID 449756).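 Also: cell death triggered by IL-1 beta plus TNF-alpha plus IFN-gamma mixture; protective hits raise ATP signal compared with cytokine alone wells.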 The format is functional. The settings on record: Rattus norvegicus.
A short description of assay [14]: blockers of HIV-1 envelope-mediated cell-cell fusion – cherry-pick, dose response (AID 652057). The format is functional, cell-based.
In assay [15] the test system is Vero. In words: cells. The class given is functional. The settings on record: Chlorocebus sabaeus.
Assay [16] in a line: blockers of HIV-1 ZM109 envelope-driven cell-cell fusion – HeLa effector, CEM target cells, luciferase, cherry-pick, dose response (AID 652058).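 Also: luciferase signal from HIV-1 Env mediated cell-cell fusion of effector and target cells.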 The class given is functional, cell-based.
For assay [17], the target named is G-protein coupled receptor 55 (Homo sapiens, UniProt Q9Y2T6). In words: selective activators of receptor GPR55 – imaging, U2OS cells, beta-arrestin-GFP redistribution, primary screen (AID 1961). The class given is functional.
Chain of G-protein coupled receptor 55 (Q9Y2T6 whole entry): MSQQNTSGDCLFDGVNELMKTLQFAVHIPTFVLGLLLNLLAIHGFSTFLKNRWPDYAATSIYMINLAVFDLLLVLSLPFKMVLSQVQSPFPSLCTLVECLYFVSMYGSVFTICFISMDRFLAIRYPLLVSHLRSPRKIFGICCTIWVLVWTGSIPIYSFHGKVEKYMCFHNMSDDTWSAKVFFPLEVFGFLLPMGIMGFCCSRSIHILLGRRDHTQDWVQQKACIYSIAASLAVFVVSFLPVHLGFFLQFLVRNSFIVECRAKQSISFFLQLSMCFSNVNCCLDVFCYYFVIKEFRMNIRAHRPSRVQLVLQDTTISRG
The nature of assay [18]: microbe, parasite or virus in culture. The format is functional. The settings on record: Mycobacterium tuberculosis.
Assay [19] is described as follows: viability of PTEN-deleted HCT116 cells – cell-based, HCT116 PTEN knockout, dose response (AID 1047).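 Also: HCT116 colon tumor cells with PTEN knocked out; cells exposed to compound for 60 hours before readout.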 The class given is functional.
A further assay concerns the target Beta-galactosidase (Escherichia coli, UniProt Q8VNN2). In words: PubChem AID 485352. The format is functional.
Assay [20] can be described thus: viability of HCT116 lacking mutant beta-catenin – cell-based, human colon tumor, dose response (AID 1045).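 Also: HCT116 colon tumor cells with beta catenin knocked out; cells exposed to compound for 60 hours.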 The format is functional.
Assay [21] has as its target Type-1 angiotensin II receptor (Homo sapiens, UniProt P30556). In words: antagonism of angiotensin II type 1 receptor – cell-based, uHTS hits, selectivity assay for APJ receptor antagonist project, dose response (AID 463214).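 Also: antagonist potency against angiotensin II stimulated AT1 response.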 The format is functional.

The structures appear in SMILES notation. Active and inactive are the calls of the source.

Chain of ATP-dependent molecular chaperone HSP82 (C4YTQ8 whole entry): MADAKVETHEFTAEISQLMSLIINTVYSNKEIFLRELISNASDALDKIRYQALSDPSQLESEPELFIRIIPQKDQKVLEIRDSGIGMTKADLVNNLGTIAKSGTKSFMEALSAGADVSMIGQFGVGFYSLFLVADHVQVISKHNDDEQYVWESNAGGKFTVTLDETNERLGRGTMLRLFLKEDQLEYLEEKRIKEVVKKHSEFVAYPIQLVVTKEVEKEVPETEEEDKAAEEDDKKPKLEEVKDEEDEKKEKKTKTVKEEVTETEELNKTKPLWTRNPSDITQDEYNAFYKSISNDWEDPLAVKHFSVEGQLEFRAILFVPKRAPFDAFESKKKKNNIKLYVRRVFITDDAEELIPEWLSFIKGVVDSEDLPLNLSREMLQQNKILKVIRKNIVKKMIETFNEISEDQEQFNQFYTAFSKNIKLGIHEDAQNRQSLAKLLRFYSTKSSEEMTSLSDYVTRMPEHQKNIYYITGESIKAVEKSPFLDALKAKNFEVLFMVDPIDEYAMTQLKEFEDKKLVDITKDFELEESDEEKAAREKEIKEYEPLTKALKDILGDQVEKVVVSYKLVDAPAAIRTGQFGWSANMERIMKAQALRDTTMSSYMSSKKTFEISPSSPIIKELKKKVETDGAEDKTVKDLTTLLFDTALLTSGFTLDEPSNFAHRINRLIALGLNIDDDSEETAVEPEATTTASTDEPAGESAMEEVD
Chain of Beta-galactosidase (Q8VNN2 whole entry): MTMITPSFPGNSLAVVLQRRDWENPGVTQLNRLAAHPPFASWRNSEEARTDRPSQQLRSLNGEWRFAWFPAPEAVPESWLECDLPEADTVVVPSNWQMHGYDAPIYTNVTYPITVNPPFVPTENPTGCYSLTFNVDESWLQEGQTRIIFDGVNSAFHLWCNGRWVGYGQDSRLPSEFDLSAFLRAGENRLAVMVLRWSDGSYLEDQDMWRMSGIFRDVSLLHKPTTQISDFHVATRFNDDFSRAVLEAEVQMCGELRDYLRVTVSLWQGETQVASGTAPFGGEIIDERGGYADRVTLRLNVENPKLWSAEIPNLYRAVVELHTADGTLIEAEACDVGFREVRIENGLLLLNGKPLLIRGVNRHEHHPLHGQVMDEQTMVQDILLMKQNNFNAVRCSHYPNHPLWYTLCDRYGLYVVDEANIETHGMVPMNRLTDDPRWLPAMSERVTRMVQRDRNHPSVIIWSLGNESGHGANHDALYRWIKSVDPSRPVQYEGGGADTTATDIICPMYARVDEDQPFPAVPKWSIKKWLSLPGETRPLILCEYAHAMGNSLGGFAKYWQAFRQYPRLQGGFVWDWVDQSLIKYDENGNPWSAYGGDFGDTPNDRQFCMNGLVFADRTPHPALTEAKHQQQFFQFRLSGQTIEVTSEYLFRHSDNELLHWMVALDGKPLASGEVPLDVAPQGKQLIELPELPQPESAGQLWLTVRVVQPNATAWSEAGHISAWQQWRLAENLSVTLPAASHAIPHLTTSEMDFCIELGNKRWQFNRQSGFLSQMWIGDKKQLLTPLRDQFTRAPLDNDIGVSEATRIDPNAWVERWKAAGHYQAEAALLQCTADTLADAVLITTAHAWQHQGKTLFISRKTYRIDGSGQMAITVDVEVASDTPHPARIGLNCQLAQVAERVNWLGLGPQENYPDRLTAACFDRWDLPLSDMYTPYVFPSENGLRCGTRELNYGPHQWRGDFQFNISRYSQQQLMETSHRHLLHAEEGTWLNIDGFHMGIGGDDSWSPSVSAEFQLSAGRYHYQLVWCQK
Chain of Type-1 angiotensin II receptor (P30556 whole entry): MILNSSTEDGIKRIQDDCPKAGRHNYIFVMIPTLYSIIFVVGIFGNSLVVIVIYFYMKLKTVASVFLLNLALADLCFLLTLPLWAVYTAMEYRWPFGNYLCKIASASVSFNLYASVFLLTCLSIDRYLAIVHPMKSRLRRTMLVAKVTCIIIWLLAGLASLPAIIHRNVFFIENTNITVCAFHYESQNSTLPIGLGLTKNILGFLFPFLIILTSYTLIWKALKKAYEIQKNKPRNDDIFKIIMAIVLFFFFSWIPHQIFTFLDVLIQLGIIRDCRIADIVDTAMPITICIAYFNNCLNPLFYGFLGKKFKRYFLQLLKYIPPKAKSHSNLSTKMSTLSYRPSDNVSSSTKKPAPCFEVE

Usually EC50 stands for the concentration giving half of the maximal effect. On to `CC(C)Cc1nc2oc3c(O)ncnc3c2c2c1CCCC2`, for which the EC50 is > 160 µM (inactive) in [1], 0.891 µM (active) in [2], > 150 µM (inactive) in assay [3] and > 180 µM (inactive) in assay [4].

A word on the IC50: it is the concentration that gives 50% inhibition. In the case of `O=C(NCc1ccco1)c1cccc2c1C(=O)c1ccc(N3CCC(Cc4ccccc4)CC3)cc1S2(=O)=O`, the figures for the IC50 on Beta Lactamase and with CHO were 4.4 µM (active) and > 49.8 µM (inactive), respectively.

Regarding `COc1cccc2sc(N(CCCN(C)C)C(=O)c3ccc(S(=O)(=O)N4CCCc5ccccc54)cc3)nc12`, the IC50 with Vero [5] is 24.6 µM (active).

What is called AC50 is the concentration giving half of the maximal activity seen. For the compound `O=c1c(-c2ccccc2)coc2c(CN3CCCC3)c(O)ccc12`, the AC50 on CAAX prenyl protease 2 was 16.2 µM (active). In assay [6], the IC50 was > 64 µM (inactive).

On to `N=c1n(CC(=O)c2ccc([N+](=O)[O-])cc2)c2ccccc2n1Cc1ccccc1`, for which the AC50 in [7] was 4.83 µM (active); in the assay on A-375 [9], > 11 µM (active); with A-375 [10], > 11 µM (active). Moreover, the EC50 in [8] and in assay [11] was > 99 µM (inactive) in each case.

In the case of `CC1CCC(C(C)C)C(OC(=O)Cn2c(-c3ccc(Cl)cc3)[n+](C)c3ccccc32)C1` (configuration not stated), the AC50 is 6.29 µM (active) in assay [7]; 9.28 µM (active) in assay [12]; 10.8 µM (active) in assay [13]; 26.3 µM (active) in the assay on A-375 [9]; 3.42 µM (active) with INS1; 15.7 µM (active) in assay [14]. Further, the AC50 in [16] was 11.7 µM (active). The CC50 in the assay with Vero [15] is > 25 µM (active). In addition, the EC50 in [17] is > 32 µM (inactive).

On to `CCc1ccc(C2c3[nH]c4ccccc4c3CCN2C(=O)c2ccc(=O)n(C)n2)cc1` (configuration not stated), for which the EC50 is > 160 µM (inconclusive) in [1], 0.223 µM (active) in [2], > 160 µM (inactive) in [3] and > 180 µM (inactive) in assay [4]. For the same compound, the CC50 in assay [18] is > 40 µM (active).

As to `COc1ccc(NS(=O)(=O)c2cc([N+](=O)[O-])ccc2N/N=C\c2c(C)[nH]c3ccccc23)cc1`, the half-maximal effective concentration (EC50) is 17.6 µM (active) in assay [19], > 40 µM (inactive) at Beta-galactosidase and 19.9 µM (active) in assay [20]. Further, the half-maximal inhibitory concentration (IC50) in assay [21] was > 40 µM (not active).
